pIC50: −log10 of the molar value.
Columns and labels:
[1] = system: carrageenan-induced rat paw edema; experiment: Carrageenan-induced rat paw edema test; type: in vivo; conditions: rats dosed intragastrically, paw volume 3 hours after carrageenan
Protocol: The carrageenan-induced rat paw edema test was used to measure antiinflammatory activity. The paw edema test was performed according to the method of Winter et al, Proc. Soc. Exp. Biol. Med. 111: 544–547, 1962. Male Sprague-Dawley rats (200–250 g) were fasted for 24 hours with water ad libitum. The rats were dosed intragastrically with test compounds in a volume of 5 mL/kg. One hour after dosing the paw volume was measured. Then each rat received a subplantar injection of 50 μl of 1% suspension of carrageenan. Three hours later, the paw volume was measured and compared with the initial volume measured […]. The increase in paw volume is presented as the mean±SEM for 5 rats per group. Data were analyzed by performing an ANOVA test followed by a Student-Keuls post hoc test.

ovine COX-1 = target: T1, ovine COX-1 (Ovis aries, UniProt P05979); experiment: biochemical
T1 sequence (P05979 25-600): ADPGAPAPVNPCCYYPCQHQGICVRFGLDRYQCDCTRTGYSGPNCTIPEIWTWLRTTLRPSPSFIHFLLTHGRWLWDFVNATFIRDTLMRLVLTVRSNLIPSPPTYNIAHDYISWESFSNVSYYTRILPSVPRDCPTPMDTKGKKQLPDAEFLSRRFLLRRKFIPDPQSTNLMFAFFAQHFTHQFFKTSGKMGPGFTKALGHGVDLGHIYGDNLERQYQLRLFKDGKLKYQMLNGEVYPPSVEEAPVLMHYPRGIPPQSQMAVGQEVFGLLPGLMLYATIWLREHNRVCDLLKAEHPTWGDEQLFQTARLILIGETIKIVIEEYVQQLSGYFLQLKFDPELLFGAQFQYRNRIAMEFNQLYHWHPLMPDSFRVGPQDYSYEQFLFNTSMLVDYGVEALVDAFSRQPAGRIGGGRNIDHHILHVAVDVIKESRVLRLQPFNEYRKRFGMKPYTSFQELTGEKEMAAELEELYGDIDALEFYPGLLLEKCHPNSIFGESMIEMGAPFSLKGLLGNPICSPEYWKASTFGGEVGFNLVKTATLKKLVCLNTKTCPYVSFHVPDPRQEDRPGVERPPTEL
Protocol: The ovine COX-1 and COX-2 activities and the measurement of the prostaglandin products synthesized were performed using the COX Inhibitor Screening Assay (Cayman Chemical, Ann Arbor, Mich., which also contained the Prostaglandin Screening EIA Kit, used for prostaglandin quantification). The test compounds were dissolved at 50 times the highest final reaction concentration in DMSO or any other suitable solvent as stock solutions. These stock solutions were then diluted in the same solvent. Eight glass test tubes (13×100 mm) were placed in a 37° C. water bath. To each test tube was added 950 μL of reaction buffer (0.1 M Tris-HCl, pH 8.0, containing 5 mM EDTA, and 2 mM phenol), 10 μL of 100 µM heme solution, and 10 μL (5 units) of either ovine COX-1 or COX-2 and the resulting mixture was incubated with the enzyme for 2 minutes. Twenty μL of the solvent was added to one tube (100% initial activity or solvent control) and 20 μL of each dilution of the test compound was added to one tube each. Each tube was vortexed immediately after the addition. The enzyme was incubated with the inhibitor for 3.5 minutes at 37° C. The enzymatic reaction was then initiated by the addition of 10 μL of freshly prepared 10 mM arachidonic acid (neutralized with KOH), vortexed and then incubated for 2 minutes at 37° C. The reaction was terminated by the addition of 50 μL of 1 M HCl, vortexed and placed at room temperature. One hundred microliters of a saturated stannous chloride solution (50 mg/mL of 0.1 M HCl) was added and the reaction mixture was allowed to stand at room temperature for at least 5 minutes.
The prostaglandins (PG) produced in the reactions were assayed, after a 2,000-fold dilution, using the Prostaglandin Screening EIA Kit (Cayman Chemical, Ann Arbor, Mich.). The assay-contains an antibody with broad specificity for all the prostaglandin families (PGF, PGE, PGD, and thromboxane B-type) synthesized in the COX-1/COX 2 reactions. The synthesized prostaglandin competes with a PG-tagged acetylcholine esterase tracer for binding to the PG antibody. Binding of synthesized PG lowers the calorimetric development of the Ellman's Reagent (computed as % B/B0). The actual amount of synthesized PG was interpolated from a standard curve using known amounts of supplied prostaglandin E2 (PGE2) (PGE2 concentration vs. % B/B0). The data generated were the mean±standard deviation of triplicate wells in the EIA for a single reaction at a given inhibitor concentration.

[2] = system: rat aortic smooth muscle rings; experiment: Relaxation of phenylephrine-contracted rat aortic smooth muscle rings; conditions: rings precontracted with 10 μM phenylephrine
Protocol: Male Sprague-Dawley rats (Charles River Laboratories (Wilmington, Mass.) were euthanized by intraperiton injection of a high dose of sodium pentobarbitone (80–100 mg/kg). The thoracic aorta was rapidly excised and immediately placed in a Petri dish containing warm (37° C.) oxygenated (95% O2 and 5% CO2) Kreb's buffer (composition per millimolar: NaCl (119); KCl (4.69); CaCl2.H2O (2.52); MgSO4.7H2O (0.57); NaHCO3 (25); NaH2PO4.H2O (1.01) and glucose (11.1). Under a stereoscopic dissecting microscope, the aorta was cleaned, freed from adhering fat and connective tissues. The tissue was cut into ring segments, each approximately 2–3 mm in length.
For experiments to measure relaxation of the tissue under various conditions, a stainless steel tissue holder and an U-shaped stainless steel wire were inserted into the lumen of the aortic ring. The tissue holder anchored the ring at the bottom of the organ bath whereas the end of the U-shaped steel wire was tied with fine silk thread so that it connected to the FT-202 transducer. The tissue holder and the steel wire along with the aortic ring were then suspended in a 5-mL double-jacketed temperature-controlled glass organ bath (Radnoti Glass Technology, Inc., Monrovia, Calif.) filled with fresh Kreb's buffer. A mixture of 95% O2 and 5% CO2 was bubbled through a porous sintered disc at the bottom of the bath. The rings were given an initial resting tension of 1.5 g and the preparation was allowed to equilibrate at the initial tension for about 90 minutes. During this equilibration period, the bath fluid was changed every 15 minutes and replaced with fresh prewarmed (37° C.) Kreb's buffer. The isometric tension of the aortic muscle at rest and its response to different stimuli were recorded on a Power Macintosh 6100 computer via a MacLab 8/S computer interface (CB Sciences, Inc, Milford, Mass.) after an initial amplification through a low-noise ETH-400 bioamplifier (CB Sciences, Inc, Milford, Mass.). Contractile responsiveness of the tissue strips was established with 10 μM phenylephrine and the strips were incubated with the drug for 20 minutes to establish a steady level of contraction. To test the relaxation effects, test compounds were added to the phenylephrine-precontracted strips in the tissue bath at cumulative concentrations of 0.1 μM to 0.1 mM. Concentration of test compounds was increased only after relaxation at the previous concentration had reached a plateau level.

NS(=O)(=O)c1ccc(-c2c(-c3ccccc3)noc2CO[N+](=O)[O-])cc1 [Example 2b, 4-(5-((Nitrooxy)methyl)-3-phenylisoxazol-4-yl)benzenesulfonamide]
paw volume (antiinflammatory activity) [1]: reduced the paw volume
inhibition at 100 µM (ovine COX-1; Ovine COX-1 (footnote a), at 100 μM): 0%
pIC50 (ovine COX-1; ovine COX-1): < 3.52
relaxation of aortic smooth muscle ring ([2]; 100 nM to 100 μM test compound): induced the relaxation of the aortic ring
relaxation compared with reference NO donor (ISDN or GSNO) ([2]; comparator as in the value): comparable to that obtained with ISDN
